What was measured:
[1] = system: hBMVEC monolayer; test: LPA-treated hBMVECs, endothelial monolayer integrity; assay type: cell-based, human; details: 1 μM or 10 μM, 20 μM LPA, Example 16, present tense
Method: Cells are exposed to each dose for 1 hr, and are then stimulated with 20 μM LPA for either 5 min or 1 hr as described below. All experiments are conducted in triplicate and analyzed by 2 independent assessors blinded to both cell line and treatment.
To examine hBMVECs monolayer integrity, cells are plated on PDL-coated coverslips (Corning) coated with Fibronectin, Collagen-1 and gelatin. 50,000 cells are seeded on each coverslip situated in a 24-well plate. Cells are grown for 3 days in ENDO-growth media (Neuromics) at 37° C./5% CO2. […] The medium is exchanged for ENDO basal media supplemented with 1% HSA, 20 μM of LPA (Santa Cruz Biotech; Santa Cruz, Calif.) and the appropriate amount of compound being tested. After 60 min, cells were fixed with 4% paraformaldehyde and stained for actin-phalloidin (ThermoFisher) and V-Cadherin (Cell Signaling), and then were mounted on microscope slides. Coverslips were imaged by fluorescence microscopy and the cell-free holes in the monolayer are measured using Image J. 3.

[2] = system: AMPK (1 and 2); test: KINOMEscan kinome screen; parameters: species or system human; details: percent of negative control binding; 100% equals no interference
Excerpt: (§1) The KINOMEscan™ screening platform (DiscoverX, Fremont, Calif.) employs a novel active site-directed competition binding assay to quantitatively measure interactions between test compounds and more than 450 human kinases and disease relevant mutant variants. […] Compounds that bind the kinase active site and directly (sterically) or indirectly (allosterically) prevent kinase binding to the immobilized ligand, will reduce the amount of kinase captured on the solid support. […] Screening “hits” are identified by measuring the amount of kinase captured in test versus control samples by using a quantitative, precise and ultra-sensitive qPCR method that detects the associated DNA label.
(§2) Kinase-tagged T7 phage strains were grown in parallel in 24-well blocks in an E. coli host derived from the BL21 strain. E. coli were grown to log-phase and infected with T7 phage from a frozen stock (multiplicity of infection=0.4) and incubated with shaking at 32° C. until lysis (90-150 minutes). The lysates were centrifuged (6,000×g) and filtered (0.2 μm) to remove cell debris. The remaining kinases were produced in HEK-293 cells and subsequently tagged with DNA for qPCR detection (Wein, et al. (2016) Nat. Comm. 7). […] Test compounds were prepared as 40× stocks in 100% DMSO and directly diluted into the assay. All reactions were performed in polypropylene 384-well plates in a final volume of 0.02 ml.

[3] = system: GCN; test: KINOMEscan kinome screen; parameters: species or system human; details: percent of negative control binding
Excerpt: as §1, §2

[4] = system: ROCK1; details: percent of negative control binding; second row printed ROCK1, text says ROCK1 and ROCK2
Excerpt: as §1, §2

[5] = Brain penetration after IV, IP or PO administration in C57BL/6 mice; assay type: in vivo, mouse; details: IV 5 mg/kg, IP 10 mg/kg, PO 30 mg/kg
Method: To determine the plasma concentrations and pharmacokinetics of the test compounds and test article following a single intravenous (IV) (5 mg/kg), intraperitoneal (IP) (10 mg/kg), or oral dose (PO) (30 mg/kg) administration to C57BL/6 male mice, the following testing [WAS/IS] performed according to the conductions set forth in Table 14.
The test drug is provided once as follows: Each I.V. dosing syringe is weighed loaded and unloaded to at least 4 decimal places. The actual dose (5 mg/kg) administered to the animal is the difference between the loaded and unloaded dosing syringe weights. Each IP dosing syringe is weighed loaded and unloaded to at least 4 decimal places. […]
Following I.V. dose administration, whole brain is collected following cardiocentesis from 4 animals at each of the following time points post-dose: 0.083 hr, 0.5 hr, 2 hr, 6 hr, 12 hr, and 24 hr. […] Whole brain is rinsed in 1×PBS, the tissue weight recorded and snap frozen in pre-labeled tubes using liquid nitrogen. In addition, whole brain from 5 naïve mice is harvested at 24 hr, rinsed in 1×PBS, the tissue weight recorded and snap frozen in pre-labeled tubes using liquid nitrogen.
Samples are analyzed by LC/MS/MS using an Agilent 6410 mass spectrometer coupled with an Agilent 1200 HPLC and a CTC PAL chilled autosampler, all controlled by MassHunter software (Agilent). […]

[6] = system: human hepatocytes; test: Metabolism in cultured hepatocytes; assay type: in vitro ADME
[7] = system: rat hepatocytes; test: Metabolism in cultured hepatocytes; assay type: in vitro ADME
Method: Test articles were incubated in duplicate rat hepatocytes at 37° C. The reaction contained […] KHB buffer, a pH 7.4. At indicated times (0 min, 15 min, 30 min, 60 min, 120 min), an aliquot was removed from each experimental and control reaction and mixed with an equal volume of ice-cold methanol. Stopped reactions were incubated at least ten minutes at −20° C. The samples were centrifuged to remove precipitated protein, and the supernatants were analyzed by LC-MS/MS.

[8] = target: 5-HT2b-receptor (Homo sapiens (Human), UniProt P41595); test: SAFETYscan off-target panel; assay type: cell-based; details: 10 μM
Sequence of 5-HT2b-receptor (P41595 whole entry): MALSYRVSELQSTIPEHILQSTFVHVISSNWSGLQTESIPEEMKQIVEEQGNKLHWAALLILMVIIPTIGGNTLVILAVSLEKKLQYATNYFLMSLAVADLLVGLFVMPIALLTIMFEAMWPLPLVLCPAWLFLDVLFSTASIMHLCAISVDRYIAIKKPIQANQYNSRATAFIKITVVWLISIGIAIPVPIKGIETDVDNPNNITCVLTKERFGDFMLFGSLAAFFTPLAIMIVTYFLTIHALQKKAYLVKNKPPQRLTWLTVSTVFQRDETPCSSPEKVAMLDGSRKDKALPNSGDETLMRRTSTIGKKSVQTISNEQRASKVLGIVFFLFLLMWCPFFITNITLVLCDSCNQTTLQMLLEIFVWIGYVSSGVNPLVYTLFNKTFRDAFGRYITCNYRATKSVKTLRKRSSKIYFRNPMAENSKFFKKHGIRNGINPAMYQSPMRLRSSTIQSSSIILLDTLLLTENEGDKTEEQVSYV
Method: The SAFETYscan™ (DiscoverX) is used for rapid testing of any compound against a panel that includes well-known membrane proteins of importance for drug development such as selected voltage-gated ion channels, G-protein coupled receptors, neurotransmitter transporters and also a selected group of purified cellular enzymes.
Cell lines engineered to express individual transmembrane receptor proteins such as the muscarinic acetylcholine receptor or the dopamine D1 receptor were grown in culture in their standard growth medium until reaching confluence. […] The experiment also contains controls for comparison including known agonists and antagonists of the targeted membrane proteins.
For assays using purified enzymes, an enzyme assay is set up in standard reaction buffer and necessary indicators for activity such as co-factors, buffers and synthetic substrates. […] As positive controls, a binding assay using Rho kinase (ROCK) was included in the panel. Other targets in the panel included G-protein coupled receptors, nuclear hormone receptors, intracellular non-kinase enzymes, ion channels, and neurotransmitter transporters. The specific targets were chosen because of their previous known associations with being the source of problematic off-target effects in cellular or whole animal studies.

[9] = Systolic blood pressure in mice, tail cuff plethysmography; details: 0.5, 1, 3 mg/kg in drinking water; Example 18, present tense
Method: Three test cohorts of mice are housed with unlimited access to normal chow and drinking water. For the first 5 days, the mice are handled daily to habituate them to contact and their blood pressures measured using a multi-animal tail cuff plethysmography apparatus (MRBP Tail Cuff Blood Pressure System; IITC Life Science; Woodland Hills, Calif.). […] These values serve as the baseline.
The third cohort receives normal, unadulterated drinking water. On day 8, blood pressure is measured for all mice.
After the day 8 blood pressure measurement, drug dosage in the 2 test cohorts is increased to 1 mg/kg-body weight and the cohort continues for 3 days at the new dose. On day 11, blood pressure is again recorded by tail cuff plethysmography for all mice during a 5 min. recording session.
Following the blood pressure recording, ON DAY 11, drug dosages in drinking water of test groups are increased up to 3 mg/kg-body weight and the cohorts continue for 3 days at the new dose. On day 14, blood pressure is recorded by tail cuff plethysmography for all mice during a 5 min. recording session.

| SMILES | monolayer integrity / Rho/ROCK activation after LPA [1] | % Negative Binding, AMPK (1 and 2) [2] [%] | % Negative Binding, GCN [3] [%] | % Negative Binding, ROCK1 [4] [%] | penetration into the brain [5] | ½ Life [6] [min] | ½ Life [7] [min] | interaction with the 5-HT2b-receptor [8] | effect on average systolic blood pressure [9] |
| --- | --- | --- | --- | --- | --- | --- | --- | --- | --- |
| C[C@@H](N)C1CCN(S(=O)(=O)c2cccc3c(=O)[nH]ccc23)CC1 [1-hydroxy-BA-1049 (R)] | prevent Rho/ROCK activation | 100 | 96 | 0.35 |  |  |  |  |  |
| C[C@@H](N)C1CCN(S(=O)(=O)c2cccc3cnccc23)CC1 [BA-1049 (R)] |  |  |  |  | able to penetrate the brain by the three routes of administration | 41.7 | 60 | potential antagonistic interaction | little or no effect on average systolic blood pressure |
